From ChEMBL document CHEMBL3046559, “Sterile oat (Avena sterilis L.) cross-resistance profile to ACCase-inhibiting herbicides in Greece” (2012)

Experiments:
Assay type in all cases: functional
Avena sterilis [1] = assay: Herbicidal activity against Avena sterilis accession P15 assessed as weed survival at 1 times field recommended herbicide dose
Avena sterilis [2] = assay: Herbicidal activity against Avena sterilis accession P12 assessed as weed survival at 1 times field recommended herbicide dose
Avena sterilis [3] = assay: Herbicidal activity against Avena sterilis accession P11 assessed as weed survival at 1 times field recommended herbicide dose
Avena sterilis [4] = assay: Herbicidal activity against Avena sterilis accession P08 assessed as weed survival at 1 times field recommended herbicide dose
Avena sterilis [5] = assay: Herbicidal activity against Avena sterilis accession P13S assessed as weed survival at 1/32 times field recommended herbicide dose
Avena sterilis [6] = assay: Herbicidal activity against Avena sterilis accession P10S assessed as weed survival at 1/32 times field recommended herbicide dose
Avena sterilis [7] = assay: Herbicidal activity against Avena sterilis accession P20 assessed as weed survival at 32 times field recommended herbicide dose
Avena sterilis [8] = assay: Herbicidal activity against Avena sterilis accession P18 assessed as weed survival at 32 times field recommended herbicide dose
Avena sterilis [9] = assay: Herbicidal activity against Avena sterilis accession P05 assessed as weed survival at 1 times field recommended herbicide dose
Avena sterilis [10] = assay: Herbicidal activity against Avena sterilis accession P03 assessed as weed survival at 1 times field recommended herbicide dose
Avena sterilis [11] = assay: Herbicidal activity against Avena sterilis accession P02 assessed as weed survival at 1 times field recommended herbicide dose
Avena sterilis [12] = assay: Herbicidal activity against Avena sterilis accession P01 assessed as weed survival at 1 times field recommended herbicide dose
Avena sterilis [13] = assay: Herbicidal activity against Avena sterilis accession P21S assessed as induction of weed mortality
Avena sterilis [14] = assay: Herbicidal activity against Avena sterilis accession P13S assessed as induction of weed mortality
Avena sterilis [15] = assay: Herbicidal activity against Avena sterilis accession P06S assessed as induction of weed mortality
Avena sterilis [16] = assay: Herbicidal activity against Avena sterilis accession P22 assessed as induction of weed mortality
Avena sterilis [17] = assay: Herbicidal activity against Avena sterilis accession P18 assessed as induction of weed mortality
Avena sterilis [18] = assay: Herbicidal activity against Avena sterilis accession P12 assessed as induction of weed mortality
Avena sterilis [19] = assay: Herbicidal activity against Avena sterilis accession P04 assessed as induction of weed mortality
Avena sterilis [20] = assay: Herbicidal activity against Avena sterilis accession P17 assessed as weed survival at 8 times field recommended herbicide dose
Avena sterilis [21] = assay: Herbicidal activity against Avena sterilis accession P14 assessed as weed survival at 8 times field recommended herbicide dose
Avena sterilis [22] = assay: Herbicidal activity against Avena sterilis accession P12 assessed as weed survival at 8 times field recommended herbicide dose
Avena sterilis [23] = assay: Herbicidal activity against Avena sterilis accession P16 assessed as weed survival at 32 times field recommended herbicide dose
Avena sterilis [24] = assay: Herbicidal activity against Avena sterilis accession P15 assessed as weed survival at 32 times field recommended herbicide dose
Avena sterilis [25] = assay: Herbicidal activity against Avena sterilis accession P08 assessed as weed survival at 32 times field recommended herbicide dose
Avena sterilis [26] = assay: Herbicidal activity against Avena sterilis accession P07 assessed as weed survival at 32 times field recommended herbicide dose
Avena sterilis [27] = assay: Herbicidal activity against Avena sterilis accession P05 assessed as weed survival at 32 times field recommended herbicide dose
Avena sterilis [28] = assay: Herbicidal activity against Avena sterilis accession P05 assessed as weed survival at 8 times field recommended herbicide dose
Avena sterilis [29] = assay: Herbicidal activity against Avena sterilis accession P01 assessed as weed survival at 32 times field recommended herbicide dose
Avena sterilis [30] = assay: Herbicidal activity against Avena sterilis accession P13S assessed as weed survival at 1/16 times field recommended herbicide dose
Avena sterilis [31] = assay: Herbicidal activity against Avena sterilis accession P06S assessed as weed survival at 1/16 times field recommended herbicide dose
Avena sterilis [32] = assay: Herbicidal activity against Avena sterilis accession P20 assessed as weed survival at 16 times field recommended herbicide dose
Avena sterilis [33] = assay: Herbicidal activity against Avena sterilis accession P18 assessed as weed survival at 16 times field recommended herbicide dose
Avena sterilis [34] = assay: Herbicidal activity against Avena sterilis accession P15 assessed as weed survival at 16 times field recommended herbicide dose
Avena sterilis [35] = assay: Herbicidal activity against Avena sterilis accession P14 assessed as weed survival at 16 times field recommended herbicide dose
Avena sterilis [36] = assay: Herbicidal activity against Avena sterilis accession P11 assessed as weed survival at 16 times field recommended herbicide dose
Avena sterilis [37] = assay: Herbicidal activity against Avena sterilis accession P07 assessed as weed survival at 16 times field recommended herbicide dose
Avena sterilis [38] = assay: Herbicidal activity against Avena sterilis accession P05 assessed as weed survival at 16 times field recommended herbicide dose
Avena sterilis [39] = assay: Herbicidal activity against Avena sterilis accession P04 assessed as weed survival at 16 times field recommended herbicide dose
Avena sterilis [40] = assay: Herbicidal activity against Avena sterilis accession P13S assessed as weed survival at 1/8 times field recommended herbicide dose
Avena sterilis [41] = assay: Herbicidal activity against Avena sterilis accession P06S assessed as weed survival at 1/8 times field recommended herbicide dose
Avena sterilis [42] = assay: Herbicidal activity against Avena sterilis accession P22 assessed as weed survival at 8 times field recommended herbicide dose
Avena sterilis [43] = assay: Herbicidal activity against Avena sterilis accession P18 assessed as weed survival at 8 times field recommended herbicide dose
Avena sterilis [44] = assay: Herbicidal activity against Avena sterilis accession P09 assessed as weed survival at 8 times field recommended herbicide dose
Avena sterilis [45] = assay: Herbicidal activity against Avena sterilis accession P02 assessed as weed survival at 8 times field recommended herbicide dose
Avena sterilis [46] = assay: Herbicidal activity against Avena sterilis accession P01 assessed as weed survival at 8 times field recommended herbicide dose
Avena sterilis [47] = assay: Herbicidal activity against Avena sterilis accession P10S assessed as weed survival at 1/4 times field recommended herbicide dose
Avena sterilis [48] = assay: Herbicidal activity against Avena sterilis accession P22 assessed as weed survival at 4 times field recommended herbicide dose
Avena sterilis [49] = assay: Herbicidal activity against Avena sterilis accession P18 assessed as weed survival at 4 times field recommended herbicide dose
Avena sterilis [50] = assay: Herbicidal activity against Avena sterilis accession P15 assessed as weed survival at 4 times field recommended herbicide dose
Avena sterilis [51] = assay: Herbicidal activity against Avena sterilis accession P14 assessed as weed survival at 4 times field recommended herbicide dose
Avena sterilis [52] = assay: Herbicidal activity against Avena sterilis accession P12 assessed as weed survival at 4 times field recommended herbicide dose
Avena sterilis [53] = assay: Herbicidal activity against Avena sterilis accession P09 assessed as weed survival at 4 times field recommended herbicide dose
Avena sterilis [54] = assay: Herbicidal activity against Avena sterilis accession P05 assessed as weed survival at 4 times field recommended herbicide dose
Avena sterilis [55] = assay: Herbicidal activity against Avena sterilis accession P07 assessed as weed survival at 4 times field recommended herbicide dose
Avena sterilis [56] = assay: Herbicidal activity against Avena sterilis accession P03 assessed as weed survival at 4 times field recommended herbicide dose
Avena sterilis [57] = assay: Herbicidal activity against Avena sterilis accession P21S assessed as weed survival at 1 times field recommended herbicide dose
Avena sterilis [58] = assay: Herbicidal activity against Avena sterilis accession P22 assessed as weed survival at 1 times field recommended herbicide dose

COCc1cnc(C2=NC(C)(C(C)C)C(=O)N2)c(C(=O)O)c1 (centres undefined) [IMAZAMOX]
80%: Survival (Avena sterilis [30])
0%: Survival (Avena sterilis [1]) | Survival (Avena sterilis [2]) | Survival (Avena sterilis [3]) | Survival (Avena sterilis [7]) | Survival (Avena sterilis [8]) | Survival (Avena sterilis [9]) | Survival (Avena sterilis [10]) | Survival (Avena sterilis [12]) | Survival (Avena sterilis [20]) | Survival (Avena sterilis [21]) | Survival (Avena sterilis [22]) | Survival (Avena sterilis [23]) | Survival (Avena sterilis [24]) | Survival (Avena sterilis [25]) | Survival (Avena sterilis [26]) | Survival (Avena sterilis [27]) | Survival (Avena sterilis [28]) | Survival (Avena sterilis [29]) | Survival (Avena sterilis [32]) | Survival (Avena sterilis [33]) | Survival (Avena sterilis [34]) | Survival (Avena sterilis [35]) | Survival (Avena sterilis [36]) | Survival (Avena sterilis [37]) | Survival (Avena sterilis [38]) | Survival (Avena sterilis [39]) | Survival (Avena sterilis [42]) | Survival (Avena sterilis [43]) | Survival (Avena sterilis [44]) | Survival (Avena sterilis [45]) | Survival (Avena sterilis [46]) | Survival (Avena sterilis [48]) | Survival (Avena sterilis [49]) | Survival (Avena sterilis [50]) | Survival (Avena sterilis [51]) | Survival (Avena sterilis [52]) | Survival (Avena sterilis [53]) | Survival (Avena sterilis [54]) | Survival (Avena sterilis [55]) | Survival (Avena sterilis [56]) | Survival (Avena sterilis [57]) | Survival (Avena sterilis [58])
14 gAi/ha: GR50 (Avena sterilis [13])
57%: Survival (Avena sterilis [41])
8 gAi/ha: GR50 (Avena sterilis [14])
9 gAi/ha: GR50 (Avena sterilis [15])
<50 gAi/ha: GR50 (Avena sterilis [16]) | GR50 (Avena sterilis [17]) | GR50 (Avena sterilis [18]) | GR50 (Avena sterilis [19])
50%: Survival (Avena sterilis [40])
100%: Survival (Avena sterilis [5]) | Survival (Avena sterilis [6])
93%: Survival (Avena sterilis [31])
3%: Survival (Avena sterilis [4]) | Survival (Avena sterilis [11])
20%: Survival (Avena sterilis [47])

CCc1cc(C)cc(CC)c1-c1c(OC(=O)C(C)(C)C)n2n(c1=O)CCOCC2 [PINOXADEN]
20%: Survival (Avena sterilis [1]) | Survival (Avena sterilis [4]) | Survival (Avena sterilis [9]) | Survival (Avena sterilis [10]) | Survival (Avena sterilis [11]) | Survival (Avena sterilis [12]) | Survival (Avena sterilis [40]) | Survival (Avena sterilis [41]) | Survival (Avena sterilis [58])
3%: Survival (Avena sterilis [56])
5.8 gAi/ha: GR50 (Avena sterilis [13])
100%: Survival (Avena sterilis [5]) | Survival (Avena sterilis [6])
4.1 gAi/ha: GR50 (Avena sterilis [14])
80%: Survival (Avena sterilis [31])
0%: Survival (Avena sterilis [2]) | Survival (Avena sterilis [3]) | Survival (Avena sterilis [7]) | Survival (Avena sterilis [8]) | Survival (Avena sterilis [20]) | Survival (Avena sterilis [21]) | Survival (Avena sterilis [22]) | Survival (Avena sterilis [23]) | Survival (Avena sterilis [24]) | Survival (Avena sterilis [25]) | Survival (Avena sterilis [26]) | Survival (Avena sterilis [27]) | Survival (Avena sterilis [28]) | Survival (Avena sterilis [29]) | Survival (Avena sterilis [32]) | Survival (Avena sterilis [33]) | Survival (Avena sterilis [34]) | Survival (Avena sterilis [35]) | Survival (Avena sterilis [36]) | Survival (Avena sterilis [37]) | Survival (Avena sterilis [38]) | Survival (Avena sterilis [39]) | Survival (Avena sterilis [42]) | Survival (Avena sterilis [43]) | Survival (Avena sterilis [44]) | Survival (Avena sterilis [45]) | Survival (Avena sterilis [46]) | Survival (Avena sterilis [47]) | Survival (Avena sterilis [48]) | Survival (Avena sterilis [49]) | Survival (Avena sterilis [50]) | Survival (Avena sterilis [51]) | Survival (Avena sterilis [52]) | Survival (Avena sterilis [53]) | Survival (Avena sterilis [54]) | Survival (Avena sterilis [55]) | Survival (Avena sterilis [57])
74 gAi/ha: GR50 (Avena sterilis [19])
<40 gAi/ha: GR50 (Avena sterilis [16]) | GR50 (Avena sterilis [17]) | GR50 (Avena sterilis [18])
97%: Survival (Avena sterilis [30])
3.5 gAi/ha: GR50 (Avena sterilis [15])

CCO/N=C(\CC)C1=C(O)CC(c2c(C)cc(C)cc2C)CC1=O (centres undefined) [TRALKOXYDIM]
<400 gAi/ha: GR50 (Avena sterilis [17]) | GR50 (Avena sterilis [18])
10%: Survival (Avena sterilis [28])
67%: Survival (Avena sterilis [30])
84 gAi/ha: GR50 (Avena sterilis [13])
30%: Survival (Avena sterilis [41])
60%: Survival (Avena sterilis [12]) | Survival (Avena sterilis [31]) | Survival (Avena sterilis [39]) | Survival (Avena sterilis [56])
70%: Survival (Avena sterilis [1])
20%: Survival (Avena sterilis [7]) | Survival (Avena sterilis [34]) | Survival (Avena sterilis [42]) | Survival (Avena sterilis [45]) | Survival (Avena sterilis [46]) | Survival (Avena sterilis [47]) | Survival (Avena sterilis [49]) | Survival (Avena sterilis [50]) | Survival (Avena sterilis [53]) | Survival (Avena sterilis [55]) | Survival (Avena sterilis [57])
93%: Survival (Avena sterilis [5])
7%: Survival (Avena sterilis [20])
34 gAi/ha: GR50 (Avena sterilis [14])
97%: Survival (Avena sterilis [6])
57%: Survival (Avena sterilis [58])
7591 gAi/ha: GR50 (Avena sterilis [19])
434 gAi/ha: GR50 (Avena sterilis [16])
40%: Survival (Avena sterilis [9]) | Survival (Avena sterilis [48]) | Survival (Avena sterilis [54])
13%: Survival (Avena sterilis [2])
0%: Survival (Avena sterilis [8]) | Survival (Avena sterilis [21]) | Survival (Avena sterilis [22]) | Survival (Avena sterilis [23]) | Survival (Avena sterilis [24]) | Survival (Avena sterilis [25]) | Survival (Avena sterilis [26]) | Survival (Avena sterilis [27]) | Survival (Avena sterilis [29]) | Survival (Avena sterilis [33]) | Survival (Avena sterilis [35]) | Survival (Avena sterilis [36]) | Survival (Avena sterilis [37]) | Survival (Avena sterilis [38]) | Survival (Avena sterilis [43]) | Survival (Avena sterilis [44]) | Survival (Avena sterilis [51]) | Survival (Avena sterilis [52])
17%: Survival (Avena sterilis [3]) | Survival (Avena sterilis [32])
77%: Survival (Avena sterilis [10]) | Survival (Avena sterilis [11])
63%: Survival (Avena sterilis [4])
23%: Survival (Avena sterilis [40])
32 gAi/ha: GR50 (Avena sterilis [15])
